Tested on: Ips engravers beetles
Assay: Bolt study (Example 1): Ips attack and gallery construction on loblolly pine bolts cut after trunk injection
Type: in vivo
Settings: for reduction of length of egg galleries compared to check trees / reduction of total number of egg galleries compared to check trees: May
Source text: The intent of the study was to evaluate the efficacy of systemic injections of emamectin benzoate in reducing success of pine bark beetle attacks on loblolly pine and determine the duration of treatment efficacy. As SPB populations were extremely low in Texas in 2004, Ips engravers beetles were used as indicator species.
Two 20-year-old, recently thinned loblolly pine plantations were selected on land owned by Temple-Inland Forest Products Corporation about 5 km south of Wells (Angelina County), Tex. Trees in one plantation were injected for use in a bolt study (Example 1). Trees in a 0.2 ha section of the second plantation were injected as part of a single-tree protection study (Example 2). A staging area also was set up in the second plantation where bolts from the first plantation were exposed to bark beetles and wood borers.
Seventy-five loblolly pine trees, Pinus taeda L., 15-20 cm diameter at breast height (DBH), were selected in March 2004. Each treatment was injected into four cardinal points about 0.3 m above the ground on each of 15 trees in April (16th-23rd) using the new Arborjet Tree IV™ microinfusion system (Arborjet, Inc. Woburn, Mass.). The treatments included: • 1) Emamectin benzoate (Denim®, 1.92% ai, Syngenta Crop Science)—Denim® was mixed 1:1 with methanol and applied at 18.6 ml solution per inch of tree diameter at breast height (DBH) (=0.2 g active per inch DBH). • 2) Check (untreated)
After 1 (May 24), 3 (July 19) and 5 (September) months post-injection, 5 trees of each treatment were felled and two 1.5 m long bolts were removed from the 3 m and 8 m heights of the bole. The bolts were transported to a nearby plantation that was recently thinned and contained fresh slash material. Each bolt was placed about 1 m apart on discarded, dry pine bolts to maximize surface area available for colonization as well as to discourage predation by ground and litter-inhabiting organisms. To facilitate timely bark beetle colonization, packets of bark beetle pheromones (racemic ipsdienol + lanerione combination, ipsenol or cis-verbenol; Phero Tech, Inc., Delta, BC, Canada) were attached separately to three 1 m stakes evenly spaced in the study area. Racemic ipsdienol and cis-verbenol were used with the second and third series of bolts deployed in July and September, respectively. The packets were removed after 2 weeks when signs of attacks (boring dust) were observed on most test bolts, signaling that naturally-produced pheromones were present.
A clear panel of acetate (10 cm wide by 25 cm long) was attached to the center of each bolt after deployment of bolts to monitor arrival of bark beetles. The top surface of each panel was coated entirely with Stikem Special® trapping compound (Michel and Pelton, Emeryville, Calif.). The traps were left in place for two weeks.
Each series of bolts were retrieved about 3 weeks after deployment, after observing many cerambycid egg niches on the bark surface of most bolts. There was concern that if cerambycid larvae were allowed to develop too long, their feeding activity would obscure or obliterate the Ips galleries. Thus, each series of bolts were retrieved and stored temporarily in a TFS seedling cooler (˜45° F.) to slow cerambycid development until the bolts could be evaluated.
In the laboratory, two 10×50 cm strips (total=1000 cm^2) of bark were removed from each bolt. […]

[1] = 1 Month Post-Injection (May), bolt height 3 m
[2] = 1 Month Post-Injection (May), bolt height 8 m
[3] = 3 Months Post-Injection (July), bolt height 3 m
[4] = 3 Months Post-Injection (July), bolt height 8 m
[5] = 5 Months Post-Injection (September), bolt height 3 m
[6] = 5 Months Post-Injection (September), bolt height 8 m

Q: For “4″-deoxy-4″-N-methylamino avermectin B1a/B1b [Emamectin]”, which “Length of Egg Galleries Total Length” value [1] is on record?
A: Its value is 30.7 a cm.

Q: And the “Length of Egg Galleries With Brood % Total” value [1]?
A: The value was 49.5%.

Q: What about the “Length of Egg Galleries With Brood cm” value [1] of the same substance?
A: The value was 15.2 a cm.

Q: What about the “Length of Egg Galleries Without Brood % Total” value [1] of the same substance?
A: Its value is 50.5%.

Q: And the “Length of Egg Galleries Without Brood cm” value [1]?
A: Its value is 15.5 a cm.

Q: And the “Mean # of Ips caught/Trap” value [1]?
A: The value was 3.8 a.

Q: What about the “Mean # of Nuptial Chambers Without Egg Galleries No.” value [1] of the same substance?
A: The value was 14.6 c.

Q: What about the “Mean # of Nuptial Chambers Without Egg Galleries Total” value [1] of the same substance?
A: Its value is 78.5.

Q: What about the “Mean # of Nuptial Chambers with Egg Galleries No.” value (shortened to “Mean # … with Egg Galleries No.”) [1] of the same substance?
A: Its value is 4.0 a.

Q: What about the “Mean # of Nuptial Chambers with Egg Galleries Total” value (“Mean # … with Egg Galleries Total” below) [1] of the same substance?
A: Its value is 21.5.

Q: And the “Mean Total # of Nuptial Chambers” value [1]?
A: Its value is 18.6 a.

Q: What about the “Number of Egg Galleries Total Galleries” value [1] of the same substance?
A: The value was 12.4 a.

Q: What about the “Number of Egg Galleries With Brood % Total” value [1] of the same substance?
A: The value was 19.4%.

Q: What about the “Number of Egg Galleries With Brood No.” value [1] of the same substance?
A: The value was 2.4 a.

Q: What about the “Number of Egg Galleries Without Brood % Total” value [1] of the same substance?
A: The value was 80.6%.

Q: What about the “Number of Egg Galleries Without Brood No.” value [1] of the same substance?
A: Its value is 10.0 a.

Q: What about the “Length of Egg Galleries Total Length” value [2] of the same substance?
A: The value was 13.5 a cm.

Q: What about the “Length of Egg Galleries With Brood % Total” value [2] of the same substance?
A: The value was 8.9%.

Q: What about the “Length of Egg Galleries With Brood cm” value [2] of the same substance?
A: Its value is 1.2 a cm.

Q: And the “Length of Egg Galleries Without Brood % Total” value [2]?
A: The value was 91.1%.

Q: And the “Length of Egg Galleries Without Brood cm” value [2]?
A: The value was 12.3 a cm.

Q: What about the “Mean # of Ips caught/Trap” value [2] of the same substance?
A: Its value is 4.8 a.

Q: And the “Mean # of Nuptial Chambers Without Egg Galleries No.” value [2]?
A: The value was 9.0 c.

Q: And the “Mean # of Nuptial Chambers Without Egg Galleries Total” value [2]?
A: Its value is 69.2.

Q: And the “Mean # … with Egg Galleries No.” value [2]?
A: Its value is 4.0 a.

Q: And the “Mean # … with Egg Galleries Total” value [2]?
A: Its value is 30.8.

Q: And the “Mean Total # of Nuptial Chambers” value [2]?
A: Its value is 13.0 ab.

Q: And the “Number of Egg Galleries Total Galleries” value [2]?
A: Its value is 4.2 a.

Q: And the “Number of Egg Galleries With Brood % Total” value [2]?
A: Its value is 4.8%.

Q: What about the “Number of Egg Galleries With Brood No.” value [2] of the same substance?
A: The value was 0.2 a.

Q: What about the “Number of Egg Galleries Without Brood % Total” value [2] of the same substance?
A: The value was 95.2%.

Q: What about the “Number of Egg Galleries Without Brood No.” value [2] of the same substance?
A: Its value is 4.0 a.

Q: And the “Length of Egg Galleries Total Length” value [3]?
A: The value was 0.0 a cm.

Q: And the “Length of Egg Galleries With Brood cm” value [3]?
A: The value was 0.0 a cm.

Q: What about the “Length of Egg Galleries Without Brood cm” value [3] of the same substance?
A: Its value is 0.0 a cm.

Q: What about the “Mean # of Ips caught/Trap” value [3] of the same substance?
A: Its value is 1.8 a.

Q: And the “Mean # of Nuptial Chambers Without Egg Galleries No.” value [3]?
A: The value was 11.0 b.

Q: And the “Mean # of Nuptial Chambers Without Egg Galleries Total” value [3]?
A: Its value is 100.0.

Q: What about the “Mean # … with Egg Galleries No.” value [3] of the same substance?
A: Its value is 0.0 a.

Q: What about the “Mean # … with Egg Galleries Total” value [3] of the same substance?
A: The value was 0.0.

Q: What about the “Mean Total # of Nuptial Chambers” value [3] of the same substance?
A: The value was 11.0 ab.

Q: What about the “Number of Egg Galleries Total Galleries” value [3] of the same substance?
A: Its value is 0.0 a.

Q: What about the “Number of Egg Galleries With Brood No.” value [3] of the same substance?
A: The value was 0.0 a.

Q: What about the “Number of Egg Galleries Without Brood No.” value [3] of the same substance?
A: The value was 0.0 a.

Q: And the “Length of Egg Galleries Total Length” value [4]?
A: Its value is 0.0 a cm.

Q: And the “Length of Egg Galleries With Brood cm” value [4]?
A: Its value is 0.0 a cm.

Q: And the “Length of Egg Galleries Without Brood cm” value [4]?
A: Its value is 0.0 a cm.

Q: What about the “Mean # of Ips caught/Trap” value [4] of the same substance?
A: The value was 3.4 a.

Q: And the “Mean # of Nuptial Chambers Without Egg Galleries No.” value [4]?
A: Its value is 8.4 c.

Q: And the “Mean # of Nuptial Chambers Without Egg Galleries Total” value [4]?
A: The value was 100.0.

Q: What about the “Mean # … with Egg Galleries No.” value [4] of the same substance?
A: The value was 0.0 a.

Q: And the “Mean # … with Egg Galleries Total” value [4]?
A: The value was 0.0.

Q: What about the “Mean Total # of Nuptial Chambers” value [4] of the same substance?
A: The value was 8.4 b.

Q: And the “Number of Egg Galleries Total Galleries” value [4]?
A: Its value is 0.0 a.

Q: And the “Number of Egg Galleries With Brood No.” value [4]?
A: The value was 0.0 a.

Q: And the “Number of Egg Galleries Without Brood No.” value [4]?
A: The value was 0.0 a.

Q: And the “Length of Egg Galleries Total Length” value [5]?
A: The value was 0.0 a cm.

Q: And the “Length of Egg Galleries With Brood cm” value [5]?
A: Its value is 0.0 a cm.

Q: And the “Length of Egg Galleries Without Brood cm” value [5]?
A: Its value is 0.0 a cm.

Q: What about the “Mean # of Ips caught/Trap” value [5] of the same substance?
A: Its value is 1.2 a.

Q: And the “Mean # of Nuptial Chambers Without Egg Galleries No.” value [5]?
A: Its value is 3.8 b.

Q: And the “Mean # of Nuptial Chambers Without Egg Galleries Total” value [5]?
A: Its value is 100.0.

Q: And the “Mean # … with Egg Galleries No.” value [5]?
A: The value was 0.0 a.

Q: And the “Mean # … with Egg Galleries Total” value [5]?
A: Its value is 0.0.

Q: What about the “Mean Total # of Nuptial Chambers” value [5] of the same substance?
A: Its value is 3.8 a.

Q: And the “Number of Egg Galleries Total Galleries” value [5]?
A: The value was 0.0 a.

Q: And the “Number of Egg Galleries With Brood No.” value [5]?
A: The value was 0.0 a.

Q: What about the “Number of Egg Galleries Without Brood No.” value [5] of the same substance?
A: The value was 0.0 a.

Q: What about the “Length of Egg Galleries Total Length” value [6] of the same substance?
A: Its value is 0.0 a cm.

Q: And the “Length of Egg Galleries With Brood cm” value [6]?
A: The value was 0.0 a cm.

Q: What about the “Length of Egg Galleries Without Brood cm” value [6] of the same substance?
A: The value was 0.0 a cm.

Q: What about the “Mean # of Ips caught/Trap” value [6] of the same substance?
A: Its value is 0.4 a.

Q: And the “Mean # of Nuptial Chambers Without Egg Galleries No.” value [6]?
A: Its value is 4.4 b.

Q: And the “Mean # of Nuptial Chambers Without Egg Galleries Total” value [6]?
A: The value was 100.0.

Q: What about the “Mean # … with Egg Galleries No.” value [6] of the same substance?
A: Its value is 0.0 a.

Q: What about the “Mean # … with Egg Galleries Total” value [6] of the same substance?
A: Its value is 0.0.

Q: What about the “Mean Total # of Nuptial Chambers” value [6] of the same substance?
A: The value was 4.4 a.

Q: And the “Number of Egg Galleries Total Galleries” value [6]?
A: Its value is 0.0 a.

Q: And the “Number of Egg Galleries With Brood No.” value [6]?
A: The value was 0.0 a.

Q: And the “Number of Egg Galleries Without Brood No.” value [6]?
A: The value was 0.0 a.

Q: What about the “construction of egg galleries” value (July and September, all bolts) of the same substance?
A: Its value is “completely prevented”.

Q: And the attacks unsuccessful (July and September, both heights)?
A: The attacks unsuccessful was 100%.

Q: And the “reduction of length of egg galleries compared to check trees” value (3 m)?
A: The value was 94%.

Q: What about the “reduction of total number of egg galleries compared to check trees” value (3 m) of the same substance?
A: Its value is 81%.

Q: What about the “reduction of length of egg galleries compared to check trees” value (8 m) of the same substance?
A: Its value is 99%.

Q: What about the “reduction of total number of egg galleries compared to check trees” value (8 m) of the same substance?
A: Its value is 96%.

Q: And the attacks unsuccessful (bolts evaluated in May, 3 m height)?
A: Its attacks unsuccessful is 79%.

Q: What about the attacks unsuccessful (bolts evaluated in May, 8 m height) of the same substance?
A: Its attacks unsuccessful is 69%.

Q: What about the “preventing successful attacks by Ips bark beetles and cerambycids” value (both examples, one, three and five months after injection) of the same substance?
A: Its value is “highly effective”.

From patent US8633167B2, “Method for the protection of trees” (Syngenta Crop Protection LLC, priority 2006, dated 2014)
